What follows are compounds tested against T1, human PAH with the R408W mutation (Homo sapiens, UniProt P00439, R408W) (assay: Cell Based Phenylalanine Flux Assay). Conditions: A375 cells expressing human R408W PAH; 24 hrs with compound, then sepiapterin and 13C9,15N-Phenylalanine for 4 hours; 13C-Tyrosine by LC-MS; average where tested multiple times; read-out: AC50.
T1 construct: expressed in transfected cells
T1 sequence (P00439 1-452 R408W): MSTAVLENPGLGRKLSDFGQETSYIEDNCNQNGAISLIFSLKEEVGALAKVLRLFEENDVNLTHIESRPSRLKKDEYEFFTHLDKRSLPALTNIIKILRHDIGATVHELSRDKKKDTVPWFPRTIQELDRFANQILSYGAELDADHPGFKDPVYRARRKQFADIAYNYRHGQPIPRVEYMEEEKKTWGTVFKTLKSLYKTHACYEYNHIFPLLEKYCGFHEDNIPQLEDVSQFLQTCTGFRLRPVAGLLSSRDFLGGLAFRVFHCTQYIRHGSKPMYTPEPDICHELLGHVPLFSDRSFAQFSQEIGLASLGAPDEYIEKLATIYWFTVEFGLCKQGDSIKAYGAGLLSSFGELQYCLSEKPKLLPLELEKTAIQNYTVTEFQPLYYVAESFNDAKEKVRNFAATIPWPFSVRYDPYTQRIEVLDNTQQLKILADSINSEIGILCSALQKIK
Procedure: Compounds were resuspended in DMSO, and 2-fold serial dilutions were performed to generate a 10-point dose curve. Compounds were added to plated cells in a total volume of 100 μl, and a final DMSO concentration of 0.5%. Each compound was tested in duplicate. Following compound addition, cells were placed in a 5% CO2, 37° C. tissue culture incubator for 24 hrs. […] 20 μM sepiapterin and 800 μM 13C9,15N-Phenylalanine were added. After 4 hours, cell media was removed. An aliquot of 10 μl of cell media was combined with 200 μl of extraction buffer (80% acetonitrile/20% H2O) for each well. Determination of ^13C-Tyrosine concentration was assessed by liquid chromatography mass spectrometry.
Where a compound was tested multiple times, the average value of the tests is reported.
With `O=C(c1cnn2cc(-c3ccccn3)ccc12)N1CCc2[nH]cnc2[C@H]1c1cc2ccccn2n1` [Example 1416, (S)-(4-(pyrazolo[1,5-a]pyridin-2-yl)-6,7-dihydro-1H-imidazo[4,5-c]pyridin-5(4H)-yl)(6-(pyridin-2-yl)pyrazolo[1,5-a]pyridin-3-yl)methanone] the AC50 was < 0.5 µM. An AC50 of 0.5 to 1 µM was found for `CC(C)(C)c1nnc(C(=O)N2CCc3[nH]cnc3[C@H]2c2cc3cccc(C(F)F)n3n2)o1` [Example 1419, (S)-(5-(tert-butyl)-1,3,4-oxadiazol-2-yl)(4-(7-(difluoromethyl)pyrazolo [1,5-a]pyridin-2-yl)-6,7-dihydro-1H-imidazo[4,5-c]pyridin-5(4H)-yl)methanone] in this work. With `O=C(c1nnc(-c2ccccn2)o1)N1CCc2[nH]cnc2[C@@H]1c1cc2cccc(C(F)F)n2n1` [Example 1420, (R)-(4-(7-(difluoromethyl)pyrazolo[1,5-a]pyridin-2-yl)-6,7-dihydro-1H-imidazo [4,5-c]pyridin-5(4H)-yl)(5-(pyridin-2-yl)-1,3,4-oxadiazol-2-yl)methanone] the AC50 was > 5 µM. `O=C(c1nnc(-c2cccnc2)o1)N1CCc2[nH]cnc2[C@@H]1c1cc2c(C(F)F)cccn2n1` [Example 1423, (R)-(4-(4-(difluoromethyl)pyrazolo[1,5-a]pyridin-2-yl)-6,7-dihydro-1H-imidazo [4,5-c]pyridin-5(4H)-yl)(5-(pyridin-3-yl)-1,3,4-oxadiazol-2-yl)methanone] was tested, and the AC50 was > 5 µM. For `COc1ccc(-c2nnc(C(=O)N3CCc4[nH]cnc4[C@H]3c3cc4c(C(F)F)cccn4n3)o2)nc1` [Example 1424, (S)-(4-(4-(difluoromethyl)pyrazolo[1,5-a]pyridin-2-yl)-6,7-dihydro-1H-imidazo [4,5-c]pyridin-5(4H)-yl)(5-(5-methoxypyridin-2-yl)-1,3,4-oxadiazol-2-yl)methanone], the AC50 was < 0.5 µM. With `Cc1cccc(-c2nnc(C(=O)N3CCc4[nH]cnc4[C@@H]3c3cc4c(C)cccn4n3)o2)n1` [Example 1428, (R)-(4-(4-methylpyrazolo [1,5-a]pyridin-2-yl)-6,7-dihydro-1H-imidazo[4,5-c]pyridin-5(4H)-yl)(5-(6-methylpyridin-2-yl)-1,3,4-oxadiazol-2-yl)methanone] the AC50 was > 5 µM. With `Cc1cccc(-c2nnc(C(=O)N3CCc4[nH]cnc4[C@H]3c3cc4c(C)cccn4n3)o2)n1` [Example 1429, (S)-(4-(4-methylpyrazolo [1,5-a]pyridin-2-yl)-6,7-dihydro-1H-imidazo[4,5-c]pyridin-5(4H)-yl)(5-(6-methylpyridin-2-yl)-1,3,4-oxadiazol-2-yl)methanone] the AC50 was < 0.5 µM. With `Cc1cccc(-c2nnc(C(=O)N3CCc4[nH]cnc4[C@H]3c3cc4c(Cl)cccn4n3)o2)n1` [Example 1431, (S)-(4-(4-chloropyrazolo [1,5-a]pyridin-2-yl)-6,7-dihydro-1H-imidazo[4,5-c]pyridin-5(4H)-yl)(5-(6-methylpyridin-2-yl)-1,3,4-oxadiazol-2-yl)methanone] the AC50 was < 0.5 µM. In the case of `Cc1cccc(-c2nnc(C(=O)N3CCc4[nH]cnc4[C@H]3c3cc4c(C(F)(F)F)cccn4n3)o2)n1` [Example 1433, (S)-(5-(6-methylpyridin-2-yl)-1,3,4-oxadiazol-2-yl)(4-(4-(trifluoromethyl)pyrazolo [1,5-a]pyridin-2-yl)-6,7-dihydro-1H-imidazo[4,5-c]pyridin-5(4H)-yl)methanone], the AC50 is reported as < 0.5 µM. An AC50 of 0.5 to 1 µM was found for `Cn1ccc(-c2ccc3c(C(=O)N4CCc5[nH]cnc5[C@H]4c4cc5ccccn5n4)cnn3c2)n1` [Example 1434, (S)-(6-(1-methyl-1H-pyrazol-3-yl)pyrazolo[1,5-a]pyridin-3-yl)(4-(pyrazolo [1,5-a]pyridin-2-yl)-6,7-dihydro-1H-imidazo[4,5-c]pyridin-5(4H)-yl)methanone] in this work. An AC50 of 1 to 5 µM was found for `Cn1ccc(-c2ccc3c(C(=O)N4CCc5[nH]cnc5[C@@H]4c4cc5ccccn5n4)cnn3c2)n1` [Example 1435, (R)-(6-(1-methyl-1H-pyrazol-3-yl)pyrazolo[1,5-a]pyridin-3-yl)(4-(pyrazolo [1,5-a]pyridin-2-yl)-6,7-dihydro-1H-imidazo[4,5-c]pyridin-5(4H)-yl)methanone] in this work. An AC50 of 0.5 to 1 µM was found for `CC(C)(F)c1nnc(C(=O)N2CCc3[nH]cnc3[C@H]2c2cc3cccc(C(F)F)n3n2)o1` [Example 1436, (S)-(4-(7-(difluoromethyl)pyrazolo[1,5-a]pyridin-2-yl)-6,7-dihydro-1H-imidazo[4,5-c]pyridin-5(4H)-yl)(5-(2-fluoropropan-2-yl)-1,3,4-oxadiazol-2-yl)methanone] in this work. An AC50 of 1 to 5 µM was found for `CC(C)(F)c1nnc(C(=O)N2CCc3[nH]cnc3[C@@H]2c2cc3cccc(C(F)F)n3n2)o1` [Example 1437, (R)-(4-(7-(difluoromethyl)pyrazolo[1,5-a]pyridin-2-yl)-6,7-dihydro-1H-imidazo[4,5-c]pyridin-5(4H)-yl)(5-(2-fluoropropan-2-yl)-1,3,4-oxadiazol-2-yl)methanone] in this work. An AC50 of 1 to 5 µM was found for `O=C(c1nnc(-c2ccn(C(F)F)n2)o1)N1CCc2[nH]cnc2[C@@H]1c1cc2cccc(C(F)F)n2n1` [Example 1443, (R)-(5-(1-(difluoromethyl)-1H-pyrazol-3-yl)-1,3,4-oxadiazol-2-yl)(4-(7-(difluoromethyl)pyrazolo[1,5-a]pyridin-2-yl)-6,7-dihydro-1H-imidazo[4,5-c]pyridin-5(4H)-yl)methanone] in this work. An AC50 of 0.5 to 1 µM was found for `Cc1cccc2cc([C@@H]3c4nc[nH]c4CCN3C(=O)c3nnc(-c4cnn(C(F)(F)F)c4)o3)nn12` [Example 1446, (S)-(4-(7-methylpyrazolo [1,5-a]pyridin-2-yl)-6,7-dihydro-1H-imidazo[4,5-c]pyridin-5(4H)-yl)(5-(1-(trifluoromethyl)-1H-pyrazol-4-yl)-1,3,4-oxadiazol-2-yl)methanone] in this work. In the case of `CC(C)c1nnc(C(=O)N2CCc3[nH]cnc3[C@@H]2c2cc3c(F)cccn3n2)o1` [Example 1453, (R)-(4-(4-fluoropyrazolo [1,5-a]pyridin-2-yl)-6,7-dihydro-1H-imidazo[4,5-c]pyridin-5(4H)-yl)(5-isopropyl-1,3,4-oxadiazol-2-yl)methanone], the AC50 is reported as > 5 µM. With `Cc1nn(C)cc1-c1nnc(C(=O)N2CCc3[nH]cnc3[C@H]2c2cc3c(C(F)F)cccn3n2)o1` [Example 1466, (S)-(4-(4-(difluoromethyl)pyrazolo[1,5-a]pyridin-2-yl)-6,7-dihydro-1H-imidazo[4,5-c]pyridin-5(4H)-yl)(5-(1,3-dimethyl-1H-pyrazol-4-yl)-1,3,4-oxadiazol-2-yl)methanone] the AC50 was < 0.5 µM. An AC50 of 1 to 5 µM was found for `Cc1cccc(-c2nnc(C(=O)N3CCc4[nH]cnc4[C@@H]3c3cc4c(F)cccn4n3)o2)n1` [Example 1471, (R)-(4-(4-fluoropyrazolo [1,5-a]pyridin-2-yl)-6,7-dihydro-1H-imidazo[4,5-c]pyridin-5(4H)-yl)(5-(6-methylpyridin-2-yl)-1,3,4-oxadiazol-2-yl)methanone] in this work. `O=C(c1nnc(-c2ccn(C(F)(F)F)n2)o1)N1CCc2[nH]cnc2[C@H]1c1cc2c(Cl)cccn2n1` [Example 1476, (S)-(4-(4-chloropyrazolo [1,5-a]pyridin-2-yl)-6,7-dihydro-1H-imidazo[4,5-c]pyridin-5(4H)-yl)(5-(1-(trifluoromethyl)-1H-pyrazol-3-yl)-1,3,4-oxadiazol-2-yl)methanone] was tested, and the AC50 was < 0.5 µM. An AC50 of 1 to 5 µM was found for `Cc1cccn2nc([C@H]3c4nc[nH]c4CCN3C(=O)c3nnc(-c4ccn(C(F)(F)F)n4)o3)cc12` [Example 1479, (R)-(4-(4-methylpyrazolo [1,5-a]pyridin-2-yl)-6,7-dihydro-1H-imidazo[4,5-c]pyridin-5(4H)-yl)(5-(1-(trifluoromethyl)-1H-pyrazol-3-yl)-1,3,4-oxadiazol-2-yl)methanone] in this work. For `O=C(c1nnc(-c2ccn(C(F)(F)F)n2)o1)N1CCc2[nH]cnc2[C@H]1c1cc2c(F)cccn2n1` [Example 1482, (S)-(4-(4-fluoropyrazolo[1,5-a]pyridin-2-yl)-6,7-dihydro-1H-imidazo[4,5-c]pyridin-5(4H)-yl)(5-(1-(trifluoromethyl)-1H-pyrazol-3-yl)-1,3,4-oxadiazol-2-yl)methanone], the AC50 was < 0.5 µM. An AC50 of 1 to 5 µM was found for `O=C(c1nnc(-c2ccn(C(F)(F)F)n2)o1)N1CCc2[nH]cnc2[C@@H]1c1cc2c(F)cccn2n1` [Example 1483, (R)-(4-(4-fluoropyrazolo [1,5-a]pyridin-2-yl)-6,7-dihydro-1H-imidazo[4,5-c]pyridin-5(4H)-yl)(5-(1-(trifluoromethyl)-1H-pyrazol-3-yl)-1,3,4-oxadiazol-2-yl)methanone] in this work. With `CC(C)c1nnc(C(=O)N2CCc3[nH]cnc3[C@H]2c2cc3c(Cl)cccn3n2)o1` [Example 1484, (S)-(4-(4-chloropyrazolo [1,5-a]pyridin-2-yl)-6,7-dihydro-1H-imidazo[4,5-c]pyridin-5(4H)-yl)(5-isopropyl-1,3,4-oxadiazol-2-yl)methanone] the AC50 was < 0.5 µM. An AC50 of 1 to 5 µM was found for `CC(C)c1nnc(C(=O)N2CCc3[nH]cnc3[C@@H]2c2cc3cccc(Cl)n3n2)o1` [Example 1489, (R)-(4-(7-chloropyrazolo [1,5-a]pyridin-2-yl)-6,7-dihydro-1H-imidazo[4,5-c]pyridin-5(4H)-yl)(5-isopropyl-1,3,4-oxadiazol-2-yl)methanone] in this work. An AC50 of 0.5 to 1 µM was found for `Cc1cccc2cc([C@@H]3c4nc[nH]c4CCN3C(=O)c3nnc(C(C)C)o3)nn12` [Example 1490, (S)-(5-isopropyl-1,3,4-oxadiazol-2-yl)(4-(7-methylpyrazolo[1,5-a]pyridin-2-yl)-6,7-dihydro-1H-imidazo[4,5-c]pyridin-5(4H)-yl)methanone] in this work.

Reference: patent publication US12673961B2 (Agios Pharmaceuticals, Inc., priority 2022, dated 2026)
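Further: Ten-point dose curve from 2-fold serial dilutions, run in duplicate at 0.5% DMSO final, tracer step used 20 µM sepiapterin and 800 µM labeled phenylalanine.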
